Results: US7504390B2, “Benzoxazepine derivatives and their use as AMPA receptor stimulators” (N.V. Organon, priority 2001, dated 2009)

System: not given
Assay: not given
Settings: not given
For `O=C1c2ccc(Cl)cc2OC[C@H]2CCCN12` [Example 4, (R)-8-chloro-2,3,11,11a-tetrahydro-1H,5H-pyrrolo[2,1-c][1,4]benzoxazepine-5-one], the melting point was 92 to 94 °C.
For `O=C1c2ccc(F)cc2OC[C@@H]2CCCN12` [Example 5, (S)-8-fluoro-2,3,11,11a-tetrahydro-1H,5H-pyrrolo[2,1-c][1,4]benzoxazepine-5-one], the melting point was 75 to 76 °C.
With `O=C1c2cccc(Cl)c2OC[C@@H]2CCCN12` [Example 8, (S)-9-Chloro-2,3,11,11a-tetrahydro-1H,5H-pyrrolo[2,1-c][1,4]benzoxazepine-5-one] the melting point was 89 to 90 °C.
Work on `O=C(c1ccc2c(c1)C(=O)N1CCC[C@H]1CO2)N1CCCCC1` [Example 15, (S)-7-(Piperidinocarbonyl)-2,3,11,11a-tetrahydro-1H,5H-pyrrolo[2,1-c][1,4]benzoxazepine-5] yielded a melting point of 140 to 140.5 °C.
`N#Cc1ccc2c(c1)C(=O)N1CCC[C@@H]1CO2` [Example 19, (R)-7-Cyano-2,3,11,11a-tetrahydro-1H5H-pyrrolo[2,1-c][1,4]benzoxazepine-5-one] gave a melting point of 164 to 165 °C.

System: AMPA receptor
Assay: Patch clamp whole cell electrophysiology: glutamate-evoked steady state current in cultured hippocampal neurons
Format: cell-based, Sprague-Dawley rats
Settings: 10 μM compound in extracellular solution; glutamate 0.5 mM; holding potential −60 mV; cultured rat hippocampal neurons
From the text: The benzoxazepines of the invention are AMPA receptor stimulators, as can be determined by an increase in steady state current induced by application of glutamate in a conventional whole cell patch clamp method when a benzoxazepine of the invention is present (see Example 30 and Table I). The compounds may be used in the treatment of neurological and psychiatric diseases where an enhancement of synaptic responses mediated by AMPA receptors is required, such as neuro-degenerative disorders, cognitive or memory dysfunction, memory and learning disorders such as can result from ageing, attention disorder, trauma, stroke, epilepsy, Alzheimer's disease, depression, schizophrenia, psychotic disorders, anxiety, sexual dysfunctions, autism, or a disorder or disease resulting from neurotic agents or substance abuse, and alcohol intoxication.
Hippocampal neurons were prepared from embryonic or 1-3 day old Sprague-Dawley rats which were decapitated and the heads immediately placed in ice cold HBS (HEPES Buffered Solution: 130 mM NaCl, 5.4 mM KCl, 10 mM HEPES, 1.0 mM MgCl2, 1.8 CaCl2, 25 mM glucose, adjusted to pH 7.4). The whole brain was excised and placed on pre-sterilised filter paper, soaked in HBS and the cerebellum was removed. The brain was chopped and an enzyme solution (0.5 mg/ml protease X and 0.5 mg/ml protease in HBS) was added and subsequently left for 40 minutes at room temperature to digest before trituration. Cells were resuspended and then counted to give a final concentration of 1.5×10^8 per ml. Cells were aliquoted onto poly-D-lysine- and Matrigel®-treated coverslips and left to incubate at 37° C. for 1-2 hours. When incubation was complete, 1 ml of growth medium was added to each well containing a coverslip and the cells were returned to the incubator. After 3-5 days the mitotic inhibitor cytosine arabinoside (5 μM) was added and the cells returned to the incubator until required.
The whole cell configuration of the patch clamp technique (Hamill et al., Pflũgers Arch. 1981, 39, 85-100) was used to measure glutamate-evoked currents from postnatal hippocampal neurons maintained in culture for 4-7 days. A glass coverslip containing the culture was transferred to the recording chamber (Warner Instrument Corp., Hamden, Conn.) mounted on the stage of an inverted microscope (Nikon, Kingston, UK). The recording chamber contained 1-2 ml extracellular solution (145 mM NaCl, 5.4 mM KCl, 10 mM HEPES, 0.8 mM MgCl2, 1.8 CaCl2, 10 mM glucose and 30 mM sucrose, adjusted to pH 7.4 with 1M NaOH) and was constantly perfused at a rate of 1 ml/min. Recordings were performed at room temperature (20-22° C.) using an Axopatch 200B amplifier (Axon Instruments Ltd., Foster City, Calif.). Data acquisition and analysis was performed using Signal software (Cambridge electronic Design Ltd., Cambridge, UK). Pipettes were manufactured from GC120F-10 glass (Harvard Apparatus, Edenbridge UK) using a model P-87 electrode puller (Sutter Instruments Co., Novarto, Calif.). The patch electrodes had typical resistances of between 3-5 MΩ when filled with intracellular solution (140 mM potassium gluconate, 20 mM HEPES, 1.1 mM EGTA, 5 mM phosphocreatine, 3 mM ATP, 0.3 mM GTP, 0.1 mM CaCl2, 5 mM MgCl2, adjusted to pH 7.4 with 1M KOH).
Cells were voltage clamped at a holding potential of −60 mV and glutamate (0.5 mM) was applied using a 12 channel semi-rapid drug application device (DAD-12. Digitimer Ltd., Welwyn Garden City, UK). The agonist glutamate was applied for 1 s every 30 s. […] Between applications saline flowed to clear any dead volume in the system. For each application steady-state currents were plotted from the difference in baseline and steady state current and averaged over 300 ms.
Two solutions of the compound in extracellular solution were made up, one with glutamate and one without. The protocol was: 10 second application of compound, 1 second application of compound+glutamate and then 10 second wash with saline, then a 10 second delay. […]
In the case of `O=C1c2ccccc2OC[C@H]2CCCN12` [(R)-2,3,11,11a-tetrahydro-1H,5H-pyrrolo[2,1-c][1,4]benzoxazepine-5-one, reference compound], the “% Increase In steady state current at 10 μM” value is reported as 24%.
For `O=C1c2ccccc2OC[C@@H]2CCCN12` [(S)-2,3,11,11a-tetrahydro-1H,5H-pyrrolo[2,1-c][1,4]benzoxazepine-5-one, reference compound], the “% Increase In steady state current at 10 μM” value was 53%.
With `O=C1c2cc(F)ccc2OC[C@H]2CCCN12` [Example 1, (R)-7-Fluoro-2,3,11,11a-tetrahydro-1H,5H-pyrrolo[2,1-c][1,4]benzoxazepine-5-one] the “% Increase In steady state current at 10 μM” value was 17%.
With `O=C1c2cc(F)ccc2OC[C@@H]2CCCN12` [Example 2, (S)-7-Fluoro-2,3,11,11a-tetrahydro-1H,5H-pyrrolo[2,1-c][1,4]benzoxazepine-5-one] the “% Increase In steady state current at 10 μM” value was 19%.
With `O=C1c2cccc(F)c2OC[C@H]2CCCN12` [Example 3A, (R)-9-Fluoro-2,3,11,11a-tetrahydro-1H,5H-pyrrolo[2,1c][1,4]benzoxazepine-5-one] the “% Increase In steady state current at 10 μM” value was 23%.
With `O=C1c2cccc(F)c2OC[C@@H]2CCCN12` [Example 3B, (S)-9-Fluoro-2,3,11,11a-tetrahydro-1H,5H-pyrrolo[2,1-c][1,4]benzoxazepine-5-one] the “% Increase In steady state current at 10 μM” value was 20%.
In the case of `O=S1(=O)c2ccccc2OC[C@@H]2CCCN21` [Example 10, (S)-2,3,11,11,a-tetrahydro-1H,5H-pyrrolo[2,1-c][5,1,4]benzthiaoxazepine-5-dioxide], the “% Increase In steady state current at 10 μM” value is reported as 7%.
In the case of `COc1ccc2c(c1)OC[C@@H]1CCCN1C2=O` [Example 11, (S)-8-Methoxy-2,3,11,11a-tetrahydro-1H,5H-pyrrolo[2,1-c][1,4]benzoxazepine-5-one], the “% Increase In steady state current at 10 μM” value is reported as 21%.
For `CC(=O)Nc1ccc2c(c1)C(=O)N1CCC[C@H]1CO2` [Example 14, (S)-N-(2,3,11,11a-tetrahydro-5-oxo-1H,5H-pyrrolo[2,1-a][1,4]benzoxazepin-7-yl)-acetamide], the “% Increase In steady state current at 10 μM” value was 49%.
In the case of `O=C(c1ccc2c(c1)C(=O)N1CCC[C@H]1CO2)N1CCOCC1` [Example 16A, (S)-7-(morpholinocarbonyl)-2,3,11,11a-tetrahydro-1H,5H-pyrrolo[2,1-c][1,4]-benzoxazepine-5-one], the “% Increase In steady state current at 10 μM” value is reported as 24%.
In the case of `NC(=O)c1ccc2c(c1)C(=O)N1CCC[C@H]1CO2` [Example 17A, (S)-7-(aminocarbonyl)-2,3,11,11a-tetrahydro-1H,5H-pyrrolo[2,1-c][1,4]benzoxazeline-5-one], the “% Increase In steady state current at 10 μM” value is reported as 8%.
In the case of `CC[C@H]1Oc2ccccc2C(=O)N2CCC[C@@H]12` [Example 20A, (11R, 11aS)-11-Ethyl-2,3,11,11a-tetrahydro-1H,5H-pyrrolo[2,1-c][1,4]benzoxazepine-5-one], the “% Increase In steady state current at 10 μM” value is reported as 31%.
For `CC[C@@H]1Oc2ccccc2C(=O)N2CCC[C@@H]12` [Example 20B, (11S. 11aS)-11-Ethyl-2,3,11,11a-tetrahydro-1H,5H-pyrrolo[2,1-c][1,4]benzoxazepine-5-one], the “% Increase In steady state current at 10 μM” value was 28%.
With `O=C1c2ccccc2OCC2COCCN12` (stereo not drawn) [Example 22, 6,6a-Dihydro-12H-Morpholino[3,4-c][1,4]benzoxazepin-12-one] the “% Increase In steady state current at 10 μM” value was 31%.
For `O=C1c2ccccc2OC[C@@H]2CCN12` [Example 23, (S)-1,2,10,10a-Tetrahydroazetidinyl[2,1-c][1,4]benzoxazepin-4-one], the “% Increase In steady state current at 10 μM” value was 16%.
In the case of `CC1(C)COC2COc3ccccc3C(=O)N21` (stereo not drawn) [Example 24, 2,11,11a-Trihydro-3,3dimethyloxazolidinyl[2,1-c][1,4]-benzoxazepin-5-one], the “% Increase In steady state current at 10 μM” value is reported as 18%.
In the case of `O=C1c2ccccc2OC[C@@H]2C[C@@H](O)CN12` [Example 25, (2R,11aS)-2-Hydroxy-2,3,11,11a-tetrahydro-1H,5H-pyrrolo[2,1-c][1,4]benzoxazepine-5-one], the “% Increase In steady state current at 10 μM” value is reported as 31%.
With `O=C1c2ccccc2OC[C@@H]2C[C@H](F)CN12` [Example 26, (2S,11aS)2-Fluoro-23,11,11a-tetrahydro-1H,5H-pyrrolo[2,1-c][1,4]benzoxazepine-5-one] the “% Increase In steady state current at 10 μM” value was 24%.
With `O=C1c2ccccc2OC[C@@H]2CC(F)(F)CN12` [Example 28, (2S)-2,2-Difluoro-2,3,11,11a-tetrahydro-1H,5H-pyrrolo[2,1-c][1,4]benzoxazepine-5-one] the “% Increase In steady state current at 10 μM” value was 9%.

System: not listed separately
Assay: Inhibition of amphetamine-induced hyperlocomotion
Format: in vivo
Settings: mice; sc, 30 minutes before 1.5 mg/kg d-amphetamine sulphate sc; measured for 60 minutes
Experimental: Mice were injected sc with drug or vehicle control. 30 Minutes later mice were injected sc with 1.5 mg/kg d-amphetamine sulphate or saline and immediately placed in infra red locomotor boxes where locomotor activity (long duration beam breaks of two adjacent beams) and stereotypic behaviour (repetitive short-duration beam breaks) were measured for a period of 60 minutes. The experiment was analysed using a 3-Way ANOVA with experimental session, infra red locomotor boxes and treatment as factors, and in the case of treatment, significant effects were followed up using a Tukey (HSD) test.
In the case of `O=C1c2ccccc2OC[C@@H]2CCCN12` [(S)-2,3,11,11a-tetrahydro-1H,5H-pyrrolo[2,1-c][1,4]benzoxazepine-5-one, reference compound], the “antipsychotic like activity (inhibited amphetamine induced hyperlocomotion)” value is reported as “antipsychotic like activity”.
With `O=C1c2cccc(F)c2OC[C@H]2CCCN12` [Example 3A, (R)-9-Fluoro-2,3,11,11a-tetrahydro-1H,5H-pyrrolo[2,1c][1,4]benzoxazepine-5-one] the “antipsychotic like activity (inhibited amphetamine induced hyperlocomotion)” value was “antipsychotic like activity”.

System: not listed separately
Assay: Differential Reinforcement of Low Rates of Responding, 72 Seconds (DRL72)
Format: in vivo
Settings: rats; intraperitoneal route 30 minutes before the test session
Experimental: Rats are pretrained in a standard operant chamber to perform a DRL72 procedure according to Andrews et al (Andrews J S, Jansen J H M, Linders S, Princen A, Drinkenburg W H I M, Coenders C J H and Vossen J H M (1994). Effects of imipramine and mirtazapine on operant performance in rats. Drug Development Research, 32:58-66). The test session lasts for 60 minutes with no limit to the number of trials. Each trial begins with the stimulus light on above the active lever. A response on the lever only results in delivery of a pellet if 72 seconds has elapsed. A response on the lever before 72 seconds has elapsed resets the timer and is not rewarded. The number of pellets earned and the number of lever presses is recorded and used to calculate an efficiency score. Test compounds are administered via the intraperitoneal route 30 minutes before the start of the test session. Antidepressants increase the number of pellets earned and decrease the number of lever presses (Andrews et al, 1994).
With `O=C1c2cccc(F)c2OC[C@@H]2CCCN12` [Example 3B, (S)-9-Fluoro-2,3,11,11a-tetrahydro-1H,5H-pyrrolo[2,1-c][1,4]benzoxazepine-5-one] the “antidepressant like profile in DRL72” value was “antidepressant like profile”.
